From the NIST ThermoML archive (doi:10.1016/j.fluid.2005.03.032)

Assay: xn = mol fraction of the nth substance listed
Conditions: 310.95 K; for viscosity: Capillary tube (Ostwald / Ubbelohde) method; for mass density: Vibrating tube method

CCCC [butane] + C
Gas, x2 = 0.736
Conditions	mass density [kg/m3]	viscosity [mPa·s]
13790 kPa	265	0.0305
20680 kPa	329	0.0406

C [methane] + CCCCCCCCCC
Conditions	viscosity [mPa·s]
34610 kPa, Gas, x1 = 0.9514	0.0386
34610 kPa, Liquid, x1 = 0.8064	0.12
35160 kPa, Gas, x1 = 0.9514	0.0396
35160 kPa, Liquid, x1 = 0.8064	0.12
35850 kPa, Gas, x1 = 0.9514	0.0403
35850 kPa, Liquid, x1 = 0.8064	0.121
36230 kPa, Liquid, x1 = 0.8609	0.105
36300 kPa, Liquid, x1 = 0.8609	0.102
36370 kPa, Liquid, x1 = 0.8609	0.1
36540 kPa, Gas, x1 = 0.9514	0.041
36540 kPa, Liquid, x1 = 0.8064	0.122
36540 kPa, Liquid, x1 = 0.8609	0.096
36890 kPa, Liquid, x1 = 0.8609	0.095
37230 kPa, Gas, x1 = 0.9514	0.0416
37230 kPa, Liquid, x1 = 0.8064	0.123
37230 kPa, Liquid, x1 = 0.8609	0.095
37580 kPa, Liquid, x1 = 0.8609	0.095
37920 kPa, Gas, x1 = 0.9514	0.042
37920 kPa, Liquid, x1 = 0.8064	0.124
37920 kPa, Liquid, x1 = 0.8609	0.096
